Measurements reported in patent US6924283B2, “4-thioxo-4,7-dihydro-thieno[2,3-b]pyridine-5-carbothioamides as antiviral agents” (Pfizer, priority 2001, dated 2005).

Key:
Format in all cases: biochemical
HCMV polymerase = molecular target: T1, HCMV polymerase (Human cytomegalovirus, UniProt P08546); experiment: HCMV polymerase scintillation proximity assay (modified version); conditions: modified SPA assay, compounds diluted in 100% DMSO, 4.5 mM DTT
T1 construct: made in house; host or cells: recombinant baculovirus-infected SF-9 cells
T1 sequence (P08546 whole entry): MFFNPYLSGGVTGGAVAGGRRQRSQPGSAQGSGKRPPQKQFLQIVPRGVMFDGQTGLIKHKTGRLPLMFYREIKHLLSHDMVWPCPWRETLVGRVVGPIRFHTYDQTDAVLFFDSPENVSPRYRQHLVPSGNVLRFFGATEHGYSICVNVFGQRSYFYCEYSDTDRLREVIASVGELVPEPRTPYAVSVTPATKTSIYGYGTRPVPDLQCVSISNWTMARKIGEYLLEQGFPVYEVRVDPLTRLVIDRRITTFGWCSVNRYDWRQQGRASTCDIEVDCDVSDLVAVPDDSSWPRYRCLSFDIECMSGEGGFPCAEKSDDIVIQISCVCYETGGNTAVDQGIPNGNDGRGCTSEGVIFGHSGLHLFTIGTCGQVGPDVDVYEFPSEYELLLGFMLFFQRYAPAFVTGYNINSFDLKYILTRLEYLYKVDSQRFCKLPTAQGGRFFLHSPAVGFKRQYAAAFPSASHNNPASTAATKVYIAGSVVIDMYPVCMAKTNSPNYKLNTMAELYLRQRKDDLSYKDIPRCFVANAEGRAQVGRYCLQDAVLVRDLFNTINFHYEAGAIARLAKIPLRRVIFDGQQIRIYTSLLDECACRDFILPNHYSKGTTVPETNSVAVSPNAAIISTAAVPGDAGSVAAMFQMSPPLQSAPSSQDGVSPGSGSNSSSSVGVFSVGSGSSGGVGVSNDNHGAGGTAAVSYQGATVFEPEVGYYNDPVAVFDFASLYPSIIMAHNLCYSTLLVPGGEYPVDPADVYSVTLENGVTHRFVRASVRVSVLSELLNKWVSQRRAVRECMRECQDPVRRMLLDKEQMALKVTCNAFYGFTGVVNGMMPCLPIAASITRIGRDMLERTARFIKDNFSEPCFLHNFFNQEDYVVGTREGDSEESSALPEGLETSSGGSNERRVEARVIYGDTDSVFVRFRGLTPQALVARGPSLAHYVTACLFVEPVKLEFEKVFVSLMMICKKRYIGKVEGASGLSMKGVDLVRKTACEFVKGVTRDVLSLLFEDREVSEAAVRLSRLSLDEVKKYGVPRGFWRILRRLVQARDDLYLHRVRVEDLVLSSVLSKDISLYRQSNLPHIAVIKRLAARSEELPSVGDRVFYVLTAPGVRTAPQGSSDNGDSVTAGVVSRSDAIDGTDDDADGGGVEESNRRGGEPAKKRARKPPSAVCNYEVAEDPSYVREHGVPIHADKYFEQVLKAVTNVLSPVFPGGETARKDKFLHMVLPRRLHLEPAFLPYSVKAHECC
Experimental: The HCMV polymerase assay is performed using a scintillation proximity assay (SPA) as described in several references, such as N. D. Cook, et al., Pharmaceutical Manufacturing International, pages 49-53 (1992); K. Takeuchi, Laboratory Practice, September issue (1992); U.S. Pat. No. 4,568,649 (1986); which are incorporated by reference herein. Reactions are performed in 96-well plates. The assay is conducted in 100 μl volume with 5.4 mM HEPES (pH 7.5), 11.7 mM KCl, 4.5 mM MgCl2, 0.36 mg/ml BSA, and 90 nM ^3H-dTTP. Assays are run with and without CHAPS, (3-[(3-cholamidopropyl)-dimethylammonio]-1-propane-sulfonate) at a final concentration of 2 mM. HCMV polymerase is diluted in enzyme dilution buffer containing 50% glycerol, 250 mM NaCl, 10 mM HEPES (pH 7.5), 100 μg/ml BSA, and 0.01% sodium azide. […] Plates are incubated 10 min. at 37° C., then equilibrated to room temperature, and counted on a Packard Topcount. Linear regressions are performed and IC50's are calculated using computer software.
A modified version of the above HCMV polymerase assay is performed as described above, but with the following changes: Compounds are diluted in 100% DMSO until final dilution into assay buffer. […] In Table 1, the term “nd” refers to activity data not determined.

HSV polymerase = HSV polymerase (Human herpesvirus 1, UniProt P04293); experiment: HSV polymerase assay (Table 1)
HSV polymerase, sequence (P04293 whole entry): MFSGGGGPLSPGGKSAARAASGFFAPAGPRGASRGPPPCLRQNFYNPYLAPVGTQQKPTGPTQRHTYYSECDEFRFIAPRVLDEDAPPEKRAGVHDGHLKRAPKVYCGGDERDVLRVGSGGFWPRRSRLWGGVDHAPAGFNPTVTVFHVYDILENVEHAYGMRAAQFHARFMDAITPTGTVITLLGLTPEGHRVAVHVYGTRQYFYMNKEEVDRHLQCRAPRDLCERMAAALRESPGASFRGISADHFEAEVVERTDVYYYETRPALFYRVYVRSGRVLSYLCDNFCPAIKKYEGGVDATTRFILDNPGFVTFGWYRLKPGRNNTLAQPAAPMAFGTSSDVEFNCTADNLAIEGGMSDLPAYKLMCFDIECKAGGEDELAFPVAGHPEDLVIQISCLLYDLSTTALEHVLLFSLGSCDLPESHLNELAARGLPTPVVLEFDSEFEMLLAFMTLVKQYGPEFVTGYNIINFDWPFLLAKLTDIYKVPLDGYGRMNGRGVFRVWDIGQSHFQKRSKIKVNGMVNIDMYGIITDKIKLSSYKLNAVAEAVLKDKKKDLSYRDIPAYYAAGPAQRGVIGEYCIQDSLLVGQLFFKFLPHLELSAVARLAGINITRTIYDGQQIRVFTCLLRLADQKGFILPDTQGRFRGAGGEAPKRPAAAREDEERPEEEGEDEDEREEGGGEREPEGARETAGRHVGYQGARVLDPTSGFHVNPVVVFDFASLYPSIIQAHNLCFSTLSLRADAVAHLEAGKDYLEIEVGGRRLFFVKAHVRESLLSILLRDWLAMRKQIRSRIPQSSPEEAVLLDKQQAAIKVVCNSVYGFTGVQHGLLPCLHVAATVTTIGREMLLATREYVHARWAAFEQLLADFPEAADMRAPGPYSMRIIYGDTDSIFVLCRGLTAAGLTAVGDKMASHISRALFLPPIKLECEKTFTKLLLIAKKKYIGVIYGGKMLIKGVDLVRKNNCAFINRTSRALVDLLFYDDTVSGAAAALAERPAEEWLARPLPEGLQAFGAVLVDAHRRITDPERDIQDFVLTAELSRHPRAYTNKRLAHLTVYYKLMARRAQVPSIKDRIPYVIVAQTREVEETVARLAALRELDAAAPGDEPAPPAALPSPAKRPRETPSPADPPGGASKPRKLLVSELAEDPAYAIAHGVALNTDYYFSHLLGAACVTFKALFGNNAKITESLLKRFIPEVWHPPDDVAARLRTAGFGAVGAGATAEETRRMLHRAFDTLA

VZV polymerase = VZV polymerase (Varicella-zoster virus, UniProt P09252); experiment: VZV polymerase assay (Table 1)
VZV polymerase, sequence (P09252 whole entry): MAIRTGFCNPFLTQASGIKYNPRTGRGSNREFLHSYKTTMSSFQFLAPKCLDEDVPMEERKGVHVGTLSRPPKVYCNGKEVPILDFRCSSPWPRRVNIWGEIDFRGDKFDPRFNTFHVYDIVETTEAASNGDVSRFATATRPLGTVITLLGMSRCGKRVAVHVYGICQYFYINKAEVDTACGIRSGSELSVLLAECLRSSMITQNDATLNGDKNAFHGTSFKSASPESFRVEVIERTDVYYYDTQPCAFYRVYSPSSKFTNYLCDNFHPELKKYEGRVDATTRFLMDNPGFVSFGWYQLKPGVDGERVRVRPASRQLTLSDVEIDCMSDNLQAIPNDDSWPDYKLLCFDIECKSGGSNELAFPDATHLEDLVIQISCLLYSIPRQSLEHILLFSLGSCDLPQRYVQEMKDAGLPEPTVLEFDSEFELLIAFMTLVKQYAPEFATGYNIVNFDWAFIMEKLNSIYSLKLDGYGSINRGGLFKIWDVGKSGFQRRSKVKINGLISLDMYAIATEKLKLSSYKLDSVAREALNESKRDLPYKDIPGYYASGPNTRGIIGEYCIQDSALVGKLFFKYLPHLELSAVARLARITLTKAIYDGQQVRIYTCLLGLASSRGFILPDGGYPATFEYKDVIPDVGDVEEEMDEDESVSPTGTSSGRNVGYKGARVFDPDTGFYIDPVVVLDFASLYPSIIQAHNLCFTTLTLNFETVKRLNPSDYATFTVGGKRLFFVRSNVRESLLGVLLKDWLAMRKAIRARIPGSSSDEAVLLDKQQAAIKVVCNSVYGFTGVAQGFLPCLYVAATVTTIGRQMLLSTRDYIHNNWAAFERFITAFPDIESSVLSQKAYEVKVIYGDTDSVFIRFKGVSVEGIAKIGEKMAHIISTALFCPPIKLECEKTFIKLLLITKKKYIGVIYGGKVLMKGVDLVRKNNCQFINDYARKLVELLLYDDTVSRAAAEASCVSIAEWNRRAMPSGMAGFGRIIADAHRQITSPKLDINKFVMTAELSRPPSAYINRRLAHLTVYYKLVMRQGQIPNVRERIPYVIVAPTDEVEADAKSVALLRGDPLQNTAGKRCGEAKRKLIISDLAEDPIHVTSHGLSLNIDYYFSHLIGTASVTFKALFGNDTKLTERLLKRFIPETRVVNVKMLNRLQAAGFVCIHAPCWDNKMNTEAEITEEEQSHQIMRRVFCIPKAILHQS

IC50 (HCMV polymerase): 0.91 µM | IC50 (HSV polymerase): 0.36 µM | IC50 (VZV polymerase): 0.13 µM
Compound: Cn1cc(C(=S)NCc2ccc(Cl)cc2)c(=S)c2cc(CN3CCOCC3)sc21 [Example 1, N-(4-Chlorobenzyl)-7-methyl-2-(4-morpholinylmethyl)-4-thioxo-4,7-dihydrothieno[2,3-b]pyridine-5-carbothioamide]
